From the supplement of paper PMC7840683

Tested on: HepaRG
Assay: LDH release cytotoxicity, % of total lysis control; higher = more cytotoxic
Settings: 48 h
Outline: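 Eight-point half-log series of test chemicals, the highest at 100 µM, were given in duplicate for 48 h to single-lot HepaRG cells on collagen I-coated 96-well plates in serum-free induction medium with 0.5% DMSO. A Tecan Safire read resorufin fluorescence from CytoTox-ONE as a measure of LDH in 50 µL spent medium, with 0.1% Triton X in total lysis wells. Percent cytotoxicity was normalized to on-plate vehicle and total lysis controls and averaged over the duplicates.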

CCC1OC(=O)C(C)C(OC2CC(C)(OC)C(O)C(C)O2)C(C)C(OC2OC(C)CC(N(C)C)C2O)C(C)(O)CC(C)C(=O)C(C)C(O)C1(C)O (stereo unspecified) [Erythromycin]
Settings | LDH release cytotoxicity [%]
0.02356 µM | -1.71
0.0745 µM | -2.96
0.23559 µM | -1.94
0.745 µM | -3.63
2.3559 µM | -3.02
7.45 µM | -2.85
23.559 µM | -1.9
74.5 µM | -0.102

C=CC1(C)OC(=O)N(c2cc(Cl)cc(Cl)c2)C1=O (stereo unspecified) [Vinclozolin]
Settings | LDH release cytotoxicity [%]
0.031623 µM | -0.342
0.1 µM | -2.45
0.316228 µM | -2.11
1 µM | -1.77
3.16228 µM | -1.59
10 µM | -1.87
31.6228 µM | -1.19
100 µM | 0.481

CCCCCCOCCO [2-Hexyloxyethanol]
Settings | LDH release cytotoxicity [%]
0.03162 µM | -0.677
0.1 µM | -1.05
0.3162278 µM | -0.605
1 µM | -0.402
3.16228 µM | -1.19
10 µM | 0.932
31.6228 µM | 0.572
100 µM | 47.6

CCCCCCCCCC[N+](C)(C)[O-] [N,N-Dimethyldecylamine oxide]
Settings | LDH release cytotoxicity [%]
0.031623 µM | -1.68
0.1 µM | -2.43
0.316228 µM | -2.73
1 µM | -2
3.16228 µM | -2.26
10 µM | -2.07
31.6228 µM | -0.853
100 µM | 1.25

Cc1ccccc1COC1CC2(C(C)C)CCC1(C)O2 (stereo unspecified) [Cinmethylin]
Settings | LDH release cytotoxicity [%]
0.03162 µM | -0.203
0.1 µM | -1.15
0.3162278 µM | -1.3
1 µM | -1.23
3.16228 µM | -1.09
10 µM | -0.853
31.6228 µM | -0.668
100 µM | 1.99

COC(=O)NC(=S)Nc1ccccc1NC(=S)NC(=O)OC [Thiophanate-methyl]
Settings | LDH release cytotoxicity [%]
0.03162 µM | -1.04
0.1 µM | -0.552
0.3162278 µM | -0.928
1 µM | -1.83
3.16228 µM | -0.882
10 µM | 0.238
31.6228 µM | 0.796
100 µM | 8.47

O=[N+]([O-])/N=C1\NCCN1Cc1ccc(Cl)nc1 [Imidacloprid]
Settings | LDH release cytotoxicity [%]
0.03162 µM | -2.56
0.1 µM | -1.08
0.3162278 µM | -1.14
1 µM | -1.66
3.16228 µM | -1.89
10 µM | -0.694
31.6228 µM | -0.538
100 µM | 1.58

Fc1ccc(Oc2ccnc3cc(Cl)cc(Cl)c23)cc1 [Quinoxyfen]
Settings | LDH release cytotoxicity [%]
0.03162 µM | -0.928
0.1 µM | -1.42
0.3162278 µM | -1.39
1 µM | -0.911
3.16228 µM | -1.44
10 µM | -0.367
31.6228 µM | -0.837
100 µM | 3.32

N#CSCSc1nc2ccccc2s1 [2-(Thiocyanomethylthio)benzothiazole]
Settings | LDH release cytotoxicity [%]
0.03162 µM | -0.587
0.1 µM | -0.847
0.3162278 µM | -0.155
1 µM | -0.646
3.16228 µM | 0.021
10 µM | -0.312
31.6228 µM | -0.754
100 µM | 1.03

Cc1cc(C)nc(Nc2ccccc2)n1 [Pyrimethanil]
Settings | LDH release cytotoxicity [%]
0.03162 µM | -0.263
0.1 µM | -1.12
0.3162278 µM | -0.512
1 µM | -1.63
3.16228 µM | -0.622
10 µM | -0.288
31.6228 µM | 0.157
100 µM | 3.8

O=C(O)C1C2CCC(O2)C1C(=O)O (stereo unspecified) [Endothal]
Settings | LDH release cytotoxicity [%]
0.03162 µM | -1.48
0.1 µM | -1.31
0.3162278 µM | -0.8
1 µM | -0.517
3.16228 µM | -1.16
10 µM | -1
31.6228 µM | 1.01
100 µM | 21.8

O=C(O)Cn1c(=O)n(Cc2ccc(Br)cc2F)c(=O)c2ccc(Cl)cc21 [Zenarestat]
Settings | LDH release cytotoxicity [%]
0.03162 µM | -0.858
0.1 µM | -0.293
0.3162278 µM | -0.841
1 µM | -0.408
3.16228 µM | -0.109
10 µM | 0.443
31.6228 µM | -0.513
100 µM | 0.792

Clc1ccc(C(c2ccc(Cl)cc2)C(Cl)(Cl)Cl)cc1 [Dichlorodiphenyltrichloroethane]
Settings | LDH release cytotoxicity [%]
0.03162 µM | 0.0415
0.1 µM | 0.0911
0.3162278 µM | 0.015
1 µM | 0.105
3.16228 µM | 0.853
10 µM | 0.81
31.6228 µM | 0.658
100 µM | 1.05

CCCCC(CC)COC(=O)c1ccc(C(=O)OCC(CC)CCCC)c(C(=O)OCC(CC)CCCC)c1 (stereo unspecified) [Tris(2-ethylhexyl) trimellitate]
Settings | LDH release cytotoxicity [%]
0.03162 µM | -1.9
0.1 µM | -0.779
0.3162278 µM | -1.6
1 µM | -0.598
3.16228 µM | -1.18
10 µM | -0.738
31.6228 µM | -0.634
100 µM | 5.97

CCOC(=O)c1ccc(O)cc1 [Ethylparaben]
Settings | LDH release cytotoxicity [%]
0.03162 µM | -0.474
0.1 µM | -1.24
0.3162278 µM | -1.05
1 µM | -1.23
3.16228 µM | -0.851
10 µM | -1.05
31.6228 µM | -0.271
100 µM | 0.163

CCCSP(=O)(OCC)SCCC [Ethoprop]
Settings | LDH release cytotoxicity [%]
0.0325715 µM | -0.633
0.103 µM | -0.669
0.325715 µM | -0.697
1.03 µM | -0.356
3.25715 µM | -0.537
10.3 µM | -0.345
32.5715 µM | 0.55
103 µM | 2.97

Clc1cccc(Cl)c1Cl [1,2,3-Trichlorobenzene]
Settings | LDH release cytotoxicity [%]
0.031623 µM | -0.151
0.1 µM | -2.59
0.316228 µM | -3.02
1 µM | -2.67
3.16228 µM | -3.67
10 µM | -2.75
31.6228 µM | -2
100 µM | -0.185

C#CC(C)(C)NC(=O)c1cc(Cl)cc(Cl)c1 [Propyzamide]
Settings | LDH release cytotoxicity [%]
0.03162 µM | -1.48
0.1 µM | -0.106
0.3162278 µM | -1.18
1 µM | -0.534
3.16228 µM | -1.13
10 µM | -0.249
31.6228 µM | -0.378
100 µM | 1.49

CC12CCC3C(CCC4CC(=O)CCC43C)C1CCC2O (stereo not drawn) [5alpha-Dihydrotestosterone]
Settings | LDH release cytotoxicity [%]
0.0322552 µM | -1.49
0.102 µM | -1.05
0.322552 µM | -1.02
1.02 µM | -0.777
3.2255232 µM | -0.0601
10.2 µM | 0.259
32.2552 µM | 2.27
102 µM | 7.51

COP(=O)(OC)SCn1c(=O)oc2cc(Cl)cnc21 [Azamethiphos]
Settings | LDH release cytotoxicity [%]
0.03162 µM | -1.96
0.1 µM | -2.24
0.3162278 µM | -2.14
1 µM | -1.66
3.16228 µM | -2.14
10 µM | -1.74
31.6228 µM | 1.89
100 µM | 22.6

CCCCCCCCOc1ccc(C(=O)c2ccccc2)c(O)c1 [Octabenzone]
Settings | LDH release cytotoxicity [%]
0.03162 µM | -0.784
0.1 µM | -1.09
0.3162278 µM | -0.164
1 µM | 0.7228
3.16228 µM | 0.706
10 µM | 0.678
31.6228 µM | 1.22
100 µM | 1.8

CCOC(=O)c1ccc(C2CCC(NCC(O)COc3ccc(O)c(NS(C)(=O)=O)c3)CC2)cc1 (stereo unspecified)
Settings | LDH release cytotoxicity [%]
0.03162 µM | -1.1
0.1 µM | -1.92
0.3162278 µM | -1.82
1 µM | -2.5
3.16228 µM | -1.76
10 µM | -1.05
31.6228 µM | -1.59
100 µM | -0.279

Cc1cc(C)c(O)c(C)c1 [2,4,6-Trimethylphenol]
Settings | LDH release cytotoxicity [%]
0.03162 µM | -0.941
0.1 µM | -0.527
0.3162278 µM | -0.0601
1 µM | -1.16
3.16228 µM | -0.619
10 µM | -0.296
31.6228 µM | 0.116
100 µM | 0.371

CCC(=C(c1ccc(O)cc1)c1ccc(OCCN(C)C)cc1)c1ccccc1 [4-Hydroxytamoxifen]
Settings | LDH release cytotoxicity [%]
0.031623 µM | -1.94
0.1 µM | -3.22
0.316228 µM | -3.61
1 µM | -3.76
3.16228 µM | -3.7
10 µM | -3.42
31.6228 µM | -3.18
100 µM | -0.0951

CCC(=NOCC=CCl)C1C(=O)CC(C2CCOCC2)CC1=O (stereo unspecified) [Tepraloxydim]
Settings | LDH release cytotoxicity [%]
0.03162 µM | -1.86
0.1 µM | -1.65
0.3162278 µM | -1.97
1 µM | -1.72
3.16228 µM | -1.7
10 µM | -1.32
31.6228 µM | -0.75
100 µM | -0.617

N#Cc1c(Cl)cccc1Cl [Dichlobenil]
Settings | LDH release cytotoxicity [%]
0.03162 µM | 0.00697
0.1 µM | -0.347
0.3162278 µM | -1.05
1 µM | -1.65
3.16228 µM | 0.43
10 µM | 0.582
31.6228 µM | 1.87
100 µM | 1.99

CC1(C)CON(Cc2ccccc2Cl)C1=O [Clomazone]
Settings | LDH release cytotoxicity [%]
0.03162 µM | -5.32
0.1 µM | -6.75
0.3162278 µM | -6.22
1 µM | -6.24
3.16228 µM | -6.33
10 µM | -5.74
31.6228 µM | -5.91
100 µM | -4.53
